Consider two molecules from publication PMC7764243, “Alterins Produced by Oyster-Associated Pseudoalteromonas Are Antibacterial Cyclolipopeptides with LPS-Binding Activity” (Marine Drugs, 2020).

The test system of one assay is A. caviae CIP 7616. The assay is classed as cell-based, Aeromonas caviae. Particulars: broth microdilution, 0.1 to 100 µM, 1.10^6 UFC/mL, 48 h, read by unaided eye. The protocol: (§1) Antibacterial activity was assayed against a panel of micro-organisms including human and aquaculture pathogenic bacterial species. MICs were performed and defined according to internationally recognized standards (CLSI [21]). Polymyxin B (PMB), an antibiotic CLP produced by Paenibacillus polymyxa, was used as positive control. The major produced alterins, i.e., alt_952, alt_954, alt_970 and alt_980 were assayed against the whole panel of target cells while the minor ones were only tested against a few bacterial strains (Table 2).
(§2) The bacterial strains Aeromonas caviae CIP 7616, Aeromonas hydrophila CIP 7614, Escherichia coli ML35, Escherichia coli SBS 363, Salmonella enterica CIP 8297 and Yersinia ruckeri ATCC 29473 were grown in Tryptic Soy Broth. The marine bacterial strains Vibrio crassostreaeJ2–9, Vibrio tasmaniensisLGP32, Vibrio tapetis CECT 4600 were grown in Marine Broth. All of them were cultivated at optimal temperature according to ATCC and CIP specifications. The strain Vibrio parahaemolyticus13-028A/3 was grown at 28 °C in Tryptic Soy Broth supplemented in NaCl (20 g.L^−1) according to [47]. The strains Pseudoalteromonas sp. hCg-6 and hCg-42 were cultured using a synthetic medium containing: 17.11 g sucrose, 30 g sea salts (Sigma-S9883), 7.6 g K2HPO4, 3 g KH2PO4 and 20 mL MEM 50X (Dulbecco) per liter. The cultures were grown at 18 °C for 72 h with shaking (100 rpm).
(§3) MICs were determined using broth microdilution method according to [21]. To resume, antibacterial compounds ranging from 0.1 to 100 µM were assayed against the target bacteria in mid-logarithmic phase culture (1.10^6 UFC.mL^−1) in adapted culture medium according to the strain. MICs were examined by unaided eye after a 48h-incubation time at the optimal temperature growth. The lipopeptide PMB (Sigma-P4932) was used as antibiotic control.
A general note: Broth dilution looks for growth in wells or tubes with falling amounts of substance.

For a further assay, the system named is A. hydrophila CIP 7614. The assay is classed as cell-based, Aeromonas hydrophila. The note with it: A. hydrophila CIP 7614; broth microdilution, 0.1 to 100 µM, 1.10^6 UFC/mL, 48 h, read by unaided eye. The protocol: as §1, §2, §3
Another assay deals with E. coli ML35. The assay is classed as cell-based, Escherichia coli. The note with it: E. coli ML35 (long-chain LPS); broth microdilution, 0.1 to 100 µM, 1.10^6 UFC/mL, 48 h, read by unaided eye. The protocol:
as §1, §2, §3

The next assay relates to E. coli SBS363. The assay is classed as cell-based, Escherichia coli. Particulars: E. coli SBS363 (short-chain LPS); broth microdilution, 0.1 to 100 µM, 1.10^6 UFC/mL, 48 h, read by unaided eye. The protocol:
as §1, §2, §3

Another assay deals with P. aeruginosa ATCC 27853. The assay is classed as cell-based, Pseudomonas aeruginosa. Particulars: P. aeruginosa ATCC 27853; broth microdilution, 0.1 to 100 µM, 1.10^6 UFC/mL, 48 h, read by unaided eye. The protocol: as §1, §3
For a further assay, the system named is Pseudoalteromonas hCg-42. In kind it is cell-based, Pseudoalteromonas sp. Particulars: Pseudoalteromonas hCg-42 (producing strain); broth microdilution, 0.1 to 100 µM, 1.10^6 UFC/mL, 48 h, read by unaided eye. The protocol:
as §1, §2, §3

For a further assay, the system named is Pseudoalteromonas hCg-6. The assay is classed as cell-based, Pseudoalteromonas sp. Particulars: Pseudoalteromonas hCg-6 (producing strain); broth microdilution, 0.1 to 100 µM, 1.10^6 UFC/mL, 48 h, read by unaided eye. As for the experimental part: as §1, §2, §3
The test system of another assay is S. enterica CIP 8297. The assay is classed as cell-based, Salmonella enterica. The note with it: broth microdilution, 0.1 to 100 µM, 1.10^6 UFC/mL, 48 h, read by unaided eye. The protocol: as §1, §2, §3
The test system of the next assay is V. harveyi ORM4. In kind it is cell-based, Vibrio harveyi. The note with it: V. harveyi ORM4; broth microdilution, 0.1 to 100 µM, 1.10^6 UFC/mL, 48 h, read by unaided eye. The protocol: as §1, §3
The subject of assay [1] is V. parahaemolyticus 13-028A/3. The assay is classed as cell-based, Vibrio parahaemolyticus. The note with it: broth microdilution, 0.1 to 100 µM, 1.10^6 UFC/mL, 48 h, read by unaided eye. As for the experimental part:
as §1, §2, §3

Another assay has as its system V. tapetis CECT 4600T. The assay is classed as cell-based, Vibrio tapetis. Particulars: V. tapetis CECT 4600T; broth microdilution, 0.1 to 100 µM, 1.10^6 UFC/mL, 48 h, read by unaided eye. As for the experimental part:
as §1, §2, §3

A further assay concerns V. tasmaniensis LGP 32. In kind it is cell-based, Vibrio tasmaniensis. The note with it: V. tasmaniensis LGP 32; broth microdilution, 0.1 to 100 µM, 1.10^6 UFC/mL, 48 h, read by unaided eye. The protocol:
as §1, §2, §3

The next assay has as its system Y. ruckeri ATCC 29473. In kind it is cell-based, Yersinia ruckeri. The note with it: Y. ruckeri ATCC 29473; broth microdilution, 0.1 to 100 µM, 1.10^6 UFC/mL, 48 h, read by unaided eye. As for the experimental part: as §1, §2, §3
The test system of a further assay is V. tasmaniensis LGP32. Briefly: Viability (cultivability, CFU count) in seawater. In kind it is cell-based, Vibrio tasmaniensis. Particulars: 20 µM, 4 h incubation in sterile seawater, inoculum 1.10^6 UFC/mL, plated in duplicate. The protocol:
As a first step, we have measured the antimicrobial activity of alt_952, alt_954, alt_970 and alt_980 against V. tasmaniensis LGP32 in seawater after a 4 hour-long incubation. […] The effects on membrane were also investigated under the same experimental conditions using live/dead bacterial viability kit for flow cytometry (Figure 6). A net cultivability loss of V. tasmaniensis (2-log reduction) was observed when incubated with alt_954 and alt_980 indicative of a bactericidal effect (Figure 7A). In these conditions, V. tasmaniensis was much less affected by alt_970 (1-log reduction) and not by alt_952 (Figure 7A).
[…] After a 4 h-long incubation, viable bacteria were counted. Diluted samples (50 µL) in sterile seawater were spread in duplicate on appropriate medium. Cultivable bacterial concentration (CFU mL^−1) was determined after overnight incubation at optimal growth temperature.

The nature of assay [2]: LPS binding, QCL-1000 chromogenic Limulus Amoebocyte Lysate (LAL) assay. Set-up: species or system Escherichia coli. Particulars: LPS 1 EU/mL pre-incubated with CLPs 0.01 to 10 µM, 15 min, 37 °C. The source says: (§4) To gain insights into LPS-alterin interactions, we used an endotoxin detection assay, the QCL-1000^TM Endpoint chromogenic Limulus Amoebocyte Lysate (LAL) assay (Lonza). We compared alt_954, alt_970 and alt_980 for their ability to bind LPS from E. coli O111:B4. All alterins bound to LPS in a dose-dependent manner, as indicated by the reduction of biologically active LPS with increasing alterins concentrations (Figure 4A). […] To examine alterin LPS-binding properties in more detail, we performed a surface plasmon resonance (SPR) assay using the Biacore technology (GE Healthcare). The SPR binding measurements were performed using the alt_954 and alt_970. PMB was used as a positive control. The CLPs were immobilized to a CM5 sensor chip surface and titrated with LPS. […] The dose-dependent effect observed (Figure 4B) highlights the LPS-binding properties of the alterins. Both LPS-binding assays, i.e., LAL and SPR, are fully agreeing for alt_954. Moreover, the LPS-binding properties of alterins followed the same general pattern as that of antibacterial activity.
The CLPs were assayed for their LPS-binding properties by using the QCL-1000 Limulus Amoebocyte Lysate kit (LAL-Lonza, Bâle, Switzerland) according to manufacturer instructions. […] Free LPS was then quantified according to the manufacturer’s instructions. […]

Assay [3] in a line: LPS binding, surface plasmon resonance (Biacore). Set-up: species or system Escherichia coli. The note with it: CLPs immobilized (500–600 RU) on CM5 chip, titrated with LPS, 25 °C, 10 mM Hepes pH 7.4, 150 mM NaCl, 3 mM EDTA.
From the text: as §4
Surface plasmon resonance experiments were carried out at 25 °C using a BIACORE 3000 apparatus (GE Healthcare, Uppsala, Sweden). […] The binding level in RU was measured at the end of the binding after normalization to the same CLP coated level.
(In general: Surface plasmon resonance follows binding to a sensor surface in real time, without labels.)

SMILES strings stand for the structures. Converted amounts (≈) assume the structure as drawn. *1 amine or outer side, *2 acyl side, *3 side chain or, on linkers, in order; H or OH if unused. Where a SMILES comes first, the peptide text is derived from it. Bridges are numbered along the chain shown (N, C = ends). [ ]: non-standard residue; d: D form. The star is where a group is joined. ξ: configuration not given here. Dab(3ξ-OH) = O=C([C@@H](N[*:1])C(O)CN[*:3])[*:2]; Decanoyl(3ξ-OH) = CCCCCCCC(O)CC(=O)*; X1 = C/C=C(/N[*:1])C(=O)[*:2]; Decanoyl = CCCCCCCCCC(=O)*; Dab = NCC[C@H](N)C(=O)O Some results are limits rather than exact numbers.

For `C/C=C1/NC(=O)[C@@H](NC(=O)CCCCCCCCC)C(O)CNC(=O)[C@H](C(O)CN)NC(=O)[C@H](C(O)CN)NC(=O)[C@H](CCCNC(=N)N)NC(=O)[C@H](CC(C)C)NC(=O)[C@H](CCN)NC1=O` (stereo partly shown) [alt_954] (Decanoyl-[Dab(3ξ-OH)][X1][Dab]LR[Dab(3ξ-OH)][Dab(3ξ-OH)]; lactam 1-C), the MIC (commonly the lowest concentration found to suppress growth) was 5.5 µM (≈ 5.25 µg/mL) against A. caviae CIP 7616; 2.7 µM (≈ 2.58 µg/mL) against A. hydrophila CIP 7614; 1.4 µM (≈ 1.34 µg/mL) against E. coli ML35; 0.2 µM (≈ 0.191 µg/mL) against E. coli SBS363; 22 µM (≈ 21 µg/mL) in the assay on P. aeruginosa ATCC 27853; over 100 µM against Pseudoalteromonas hCg-42. The minimal inhibitory concentration (MIC) in the assay on Pseudoalteromonas hCg-6 is over 100 µM; against S. enterica CIP 8297, 0.7 µM (≈ 0.669 µg/mL); with V. harveyi ORM4 it was 1.4 µM (≈ 1.34 µg/mL); in assay [1], 6.25 µM (≈ 5.97 µg/mL); with V. tapetis CECT 4600T it was over 100 µM; in the assay with V. tasmaniensis LGP 32, 2.7 µM (≈ 2.58 µg/mL). Besides, in the assay on Y. ruckeri ATCC 29473, the MIC is listed as 0.3 µM (≈ 0.287 µg/mL). Also, the “cultivability loss of V. tasmaniensis (log reduction of CFU)” value in the assay with V. tasmaniensis LGP32 is 2 log. For the same molecule, the “LPS binding (reduction of biologically active LPS, LAL assay)” value in assay [2] is “more efficiently than alt_970”.

Turning to `C/C=C1/NC(=O)[C@@H](NC(=O)CC(O)CCCCCCC)C(O)CNC(=O)[C@H](C(O)CN)NC(=O)[C@H](C(O)CN)NC(=O)[C@H](CCCNC(=N)N)NC(=O)[C@H](CC(C)C)NC(=O)[C@H](CCN)NC1=O` (stereo partly shown) [alt_970] ({Decanoyl(3ξ-OH)}-[Dab(3ξ-OH)][X1][Dab]LR[Dab(3ξ-OH)][Dab(3ξ-OH)]; lactam 1-C), the minimum inhibitory concentration (MIC) in the assay with A. caviae CIP 7616 is 17.6 µM (≈ 17.1 µg/mL); against E. coli ML35, 35 µM (≈ 34 µg/mL); against E. coli SBS363, 0.1 µM (≈ 0.0971 µg/mL); against P. aeruginosa ATCC 27853, 35.2 µM (≈ 34.2 µg/mL); against Pseudoalteromonas hCg-42, over 100 µM; in the assay on Pseudoalteromonas hCg-6, over 100 µM. For the same molecule, the MIC in the assay with S. enterica CIP 8297 is recorded as 1.1 µM (≈ 1.07 µg/mL); in [1] it was 6.25 µM (≈ 6.07 µg/mL); in the assay on V. tapetis CECT 4600T, over 100 µM; with V. tasmaniensis LGP 32, 8.8 µM (≈ 8.55 µg/mL); with Y. ruckeri ATCC 29473, 1.1 µM (≈ 1.07 µg/mL). Also, in the assay with V. tasmaniensis LGP32, the “cultivability loss of V. tasmaniensis (log reduction of CFU)” value is listed as 1 log. The “LPS binding response (SPR, RU)” value in assay [3] was “the response was halved”.
